Source: patent US20070213280A1, “Steroidal Saponins Compound, the Process for Producing the Same and the Use Thereof” (GUILIN INNOVATIVE MEDICINES INVESTMENT LTD., CO., priority 2004, published 2007)
Structures can show the parent of a compound that is named as a salt.

Assays:
[1] = test system: acute miocardial infarction caused by ligation of coronary artery; assay: Acute miocardial infarction by coronary artery ligation in canines (Example 3); format: in vivo, Adult hybrid canines; settings: canine; for Infarction size/heart size (%) / Infarction size/ventricles size (%): n=2
Experimental: (§1) Methods: Applying the model of acute miocardial infarction caused by ligation of coronary artery, detecting miocardial infarction scope, coronary arterial flow and myocardial consumption of oxygen to observe the curative effect of MPD injection.
Canine was anaesthetized by 3% Pentobarbital Sodium (1 mL/kg), opening the chest, exposing the heart and making up a arcula cordis bed; leading on an epicardial electrode and then ligating the root of the left anterior descending of coronary artery (LADCA). Venous cannula on thigh was administered to inject drug, arterial cannula on cervical and pipe from external jugular vein to vena coronaria sinus were administered, thus the blood was obtained separately and AtV oxygen content were measured.
2.2.3 Six canines were randomly divided into model control group (injecting physiological saline 1 mL/1 kg by femoral vein), positive control group (Diltiazem Hydrochloride solution 0.5 mg/kg) and MPD treated group (20 mg/kg by femoral vein), two canines per group. The data of N-ST, Σ-ST, the blood oxygen content of vena coronaria sinus and artery, and the scope of miocardial infarction of pro-administration were collected after administration at once, and 5, 15, 30, 60, 120, 180 minutes after administration.
Epicardial electrogram: recording the change of N-ST and Σ-ST.
(§2) Determining the scope of miocardial infarction (N-BT staining method): quickly taking out the heart from the executed animal, then washing by physiologic saline and dewatering with filter paper, the heart was cut into 4 pieces uniformly from apex of heart to ligating thread, then the pieces were put into N-BT staining solution, keeping in common temperature, avoiding light in 2 minutes. Then measuring the size of each slice, and the size of miocardial infarction (non-staining zone with N-BT) by colorful multimedia patho-image analytical system, total area of ventricular muscle, total area of infarction of ventricular muscle, and the ratio of miocardial infarction size relative to the size of ventricles were measured respectively.

Rat model of AMI [2] = assay: Rat model of AMI by ligating of coronary artery, MPD, PPD and MPD+PPD mixture (Example 5); format: in vivo, Wistar rats; settings: 40 mg/kg by pouring to stomach, one time after ligating, 24 h, relative to size of ventricles
Experimental: (§3) Methods: Rat model of AMI was established by ligating of coronary artery.
(§4) Rat was anaesthetized by 3.5% chloral hydrate (10 mL/kg, by weight), then linking to electric-respirator, scraping off the fur of chest, opening thoracic cavity, exposing cardiac pericardium and then ligating the root of the left anterior descending of coronary artery (LADCA).
33 rats were randomly divided into model control group (physiological saline 5 mL/kg by pouring down throat), MPD treated group (40 mg/5 mL/kg, by pouring to stomach), PPD treated group (40 mg/5 mL/kg, by pouring to stomach) and MPD+PPD treated group (40 mg/5 mL/kg, by pouring to stomach). […]
as §2, with “5” for “4”

Rat model of AMI [3] = assay: Rat model of AMI by ligating of coronary artery, PPD and MPD by pouring to stomach (Example 4); format: in vivo, Wistar rats; settings: for Death rate in operation / Infarction size/whole heart size (%): experiment 2 (repeated), 40 mg/kg by pouring to stomach
Experimental: as §3, §4
(§5) 12 rats were randomly divided into model control group (physiological saline 5 mL/kg by pouring down throat) and PPD treated group (40 mg/5 mL/kg, by pouring to stomach), 6 rats per group. Rats were administrated one time after ligating, then be executed 24 hours later.
as §5, with “24” for “12”, “to stomach), MPD treated group (40 mg/5 mL/kg, by pouring to stomach)” for “down throat)”, “stomach).” for “stomach), 6 rats per group.”
as §2, with “5” for “4”

[4] = test system: acute miocardial infarction caused by ligation of coronary artery; assay: Acute miocardial infarction by coronary artery ligation in rats, MPD injection (Example 3); format: in vivo, Wistar rats; settings: rat, n=10
Experimental: as §1, §4
2.2.1 Preliminary experiment: twenty rats were randomly divided into model control group (injecting physiological saline 3 mL/kg by vena caudalis) and MPD treated group (40 mg/kg, i.v), ten rats per group.
2.2.2 Repeated experiment: fifty rats were randomly divided into model control group (injecting physiological saline 3 ml/kg by vena caudalis), Di'ao Xinxuekang group (administering 40 mg/kg by intragastric administration), MPD dose-intensive group (80 mg/kg by vena caudalis injection), MPD moderate dose group (40 mg/kg) and MPD low-dose group (20 mg/kg), ten rats per group. Rats were treated after 30 minutes of preparing model successfully, and were executed after 24 hours, and observing the results.
as §2

[5] = 20 mg/kg by femoral vein, 20 mg/kg

Compound	Infarction size/heart size (%) ([1]; 0.5 mg/kg)	Infarction size/ventricles size (%) ([1]; 0.5 mg/kg)	infarct size (IS) (%) (Rat model of AMI [2])	N-ST (epicardial electrogram) comparing with control group ([1]; 20 mg/kg by femoral vein, FIG. 4)	flow of aeteria coronaria comparing with control group ([1]; 20 mg/kg by femoral vein, FIG. 6)	miocardial consumption of oxygen (MCO) comparing with control group ([1]; 20 mg/kg by femoral vein, FIG. 7)	Infarction size/heart size (%) [1, 5]	Infarction size/ventricles size (%) [1, 5]	Death rate in operation (Rat model of AMI [3])	Infarction size/whole heart size (%) (Rat model of AMI [3]; one time after ligating, 24 h)	miocardial infarction size/ventricular size (%) ([4]; preliminary experiment, 40 mg/kg i.v., X ± SD, 40 mg/kg)	miocardial infarction size/ventricular size (%) ([4]; repeated experiment, dose-intensive 80 mg/kg by vena caudalis injection, 24 h)	miocardial infarction size/ventricular size (%) ([4]; repeated experiment, low-dose 20 mg/kg by vena caudalis injection, 24 h, 20 mg/kg)	miocardial infarction size/ventricular size (%) ([4]; repeated experiment, moderate dose 40 mg/kg by vena caudalis injection, 24 h, 40 mg/kg)	miocardial infarction size/ventricular size (%) (Rat model of AMI [3]; experiment 1, 40 mg/kg by pouring to stomach, one time after ligating, 24 h, n=6, 40 mg/kg)
COc1ccc([C@@H]2Sc3ccccc3N(CCN(C)C)C(=O)[C@@H]2OC(C)=O)cc1 [Diltiazem Hydrochloride, reference compound]	1.81 ± 0.79 %	4.36 ± 1.15 %	–	–	–	–	–	–	–	–	–	–	–	–	–
CO[C@]1(CC[C@@H](C)CO[C@@H]2O[C@H](CO)[C@@H](O)[C@H](O)[C@H]2O)O[C@H]2C[C@H]3[C@@H]4CC=C5C[C@@H](O[C@@H]6O[C@H](CO)[C@@H](O[C@@H]7O[C@@H](C)[C@H](O)[C@@H](O)[C@H]7O)[C@H](O)[C@H]6O[C@@H]6O[C@@H](C)[C@H](O)[C@@H](O)[C@H]6O)CC[C@]5(C)[C@H]4CC[C@]3(C)[C@H]2[C@@H]1C [MPD, Methylprotodioscin]	–	–	36.24±3.74%	no significant difference	no significant difference	no significant difference	2.74±0.33%	7.30±0.97%	0% (0/8)	33.71 ± 6.73 %	33.4±8.09%	30.62±9.46%	37.89±8.41%	32.32±6.92%	–
CC1=C(CC[C@@H](C)CO[C@@H]2O[C@H](CO)[C@@H](O)[C@H](O)[C@H]2O)O[C@H]2C[C@H]3[C@@H]4CC=C5C[C@@H](O[C@@H]6O[C@H](CO)[C@@H](O[C@@H]7O[C@@H](C)[C@H](O)[C@@H](O)[C@H]7O)[C@H](O)[C@H]6O[C@@H]6O[C@@H](C)[C@H](O)[C@@H](O)[C@H]6O)CC[C@]5(C)[C@H]4CC[C@]3(C)[C@@H]12 [PPD, Pseudoprotodioscin]	–	–	36.31±1.90%	–	–	–	–	–	14.3% (1/7)	36.31 ± 1.90 %	–	–	–	–	36.25±7.20%
